From ChEMBL document CHEMBL3822398, “Design, synthesis and in vitro biological evaluation of short-chain C12-sphinganine and its 1,2,3-triazole analogs as potential antimicrobial and anti-biofilm agents” (Eur J Med Chem, 2016)
Values after ≈ are worked out from the molar mass of the structure shown. Active and inactive are the calls of the source. The rule behind the calls is not given here.

Legend:
[1] = test system: Candida albicans; test: Antifungal activity against Candida albicans MTCC 183 incubated for 24 hrs at 30 degC by well diffusion method; assay type: functional; conditions: MTCC 183, 24 h
[2] = test system: Pichia kudriavzevii; test: Fungicidal activity against Candida krusei MTCC 3020 incubated for 24 hrs; assay type: functional; conditions: MTCC 3020, 24 h
[3] = test system: Candida albicans; test: Fungicidal activity against Candida albicans MTCC 227 incubated for 24 hrs; assay type: functional; conditions: MTCC 227, 24 h
[4] = test system: Candida albicans; test: Fungicidal activity against Candida albicans MTCC 3958 incubated for 24 hrs; assay type: functional; conditions: MTCC 3958, 24 h
[5] = test system: Candida albicans; test: Fungicidal activity against Candida albicans MTCC 7315 incubated for 24 hrs; assay type: functional; conditions: MTCC 7315, 24 h
[6] = test system: Pichia sporocuriosa; test: Fungicidal activity against Issatchenkia hanoiensis MTCC 4755 incubated for 24 hrs; assay type: functional; conditions: MTCC 4755, 24 h
[7] = test system: [Candida] aaseri; test: Antifungal activity against Candida aaseri MTCC 1962 incubated for 24 hrs at 30 degC by well diffusion method; assay type: functional; conditions: Yamadazyma aaseri, MTCC 1962, 24 h
[8] = test system: Candida albicans; test: Antifungal activity against Candida albicans MTCC 854 incubated for 24 hrs at 30 degC by well diffusion method; assay type: functional; conditions: MTCC 854, 24 h
[9] = test system: Candida albicans; test: Fungicidal activity against Candida albicans MTCC 183 incubated for 24 hrs; assay type: functional; conditions: MTCC 183, 24 h
[10] = test system: Candida albicans; test: Fungicidal activity against Candida albicans MTCC 1637 incubated for 24 hrs; assay type: functional; conditions: MTCC 1637, 24 h
[11] = test system: Candida albicans; test: Antifungal activity against Candida albicans MTCC 3958 incubated for 24 hrs at 30 degC by well diffusion method; assay type: functional; conditions: MTCC 3958, 24 h
[12] = test system: Pichia kudriavzevii; test: Antifungal activity against Candida krusei MTCC 3020 incubated for 24 hrs at 30 degC by well diffusion method; assay type: functional; conditions: MTCC 3020, 24 h
[13] = test system: Candida albicans; test: Fungicidal activity against Candida albicans MTCC 4748 incubated for 24 hrs; assay type: functional; conditions: MTCC 4748, 24 h
[14] = test system: Candida albicans; test: Antifungal activity against Candida albicans MTCC 4748 incubated for 24 hrs at 30 degC by well diffusion method; assay type: functional; conditions: MTCC 4748, 24 h
[15] = test system: Candida albicans; test: Fungicidal activity against Candida albicans MTCC 3017 incubated for 24 hrs; assay type: functional; conditions: MTCC 3017, 24 h
[16] = test system: Candida parapsilosis; test: Antifungal activity against Candida parapsilosis MTCC 1744 incubated for 24 hrs at 30 degC by well diffusion method; assay type: functional; conditions: Lodderomyces parapsilosis, MTCC 1744, 24 h
[17] = test system: Micrococcus luteus; test: Antibacterial activity against Micrococcus luteus MTCC 2470 incubated for 24 hrs at 37 degC by well diffusion method; assay type: functional; conditions: MTCC 2470, 24 h
[18] = test system: Candida parapsilosis; test: Fungicidal activity against Candida parapsilosis MTCC 1744 incubated for 24 hrs; assay type: functional; conditions: Lodderomyces parapsilosis, MTCC 1744, 24 h
[19] = test system: Candida albicans; test: Antifungal activity against Candida albicans MTCC 3018 incubated for 24 hrs at 30 degC by well diffusion method; assay type: functional; conditions: MTCC 3018, 24 h
[20] = test system: Raoultella planticola; test: Antibacterial activity against Klebsiella planticola MTCC 530 incubated for 24 hrs at 37 degC by well diffusion method; assay type: functional; conditions: MTCC 530, 24 h
[21] = test system: Staphylococcus aureus; test: Bactericidal activity against Staphylococcus aureus MLS16 MTCC 2940 incubated for 24 hrs; assay type: functional; conditions: MLS16 MTCC 2940, 24 h
[22] = test system: Candida albicans; test: Antifungal activity against Candida albicans MTCC 3017 incubated for 24 hrs at 30 degC by well diffusion method; assay type: functional; conditions: MTCC 3017, 24 h
[23] = test system: Candida albicans; test: Fungicidal activity against Candida albicans MTCC 3018 incubated for 24 hrs; assay type: functional; conditions: MTCC 3018, 24 h
[24] = test system: Nakaseomyces glabratus; test: Fungicidal activity against Candida glabrata MTCC 3019 incubated for 24 hrs; assay type: functional; conditions: MTCC 3019, 24 h
[25] = test system: Staphylococcus aureus; test: Bactericidal activity against Staphylococcus aureus MTCC 96 incubated for 24 hrs; assay type: functional; conditions: MTCC 96, 24 h
[26] = test system: Raoultella planticola; test: Bactericidal activity against Klebsiella planticola MTCC 530 incubated for 24 hrs; assay type: functional; conditions: MTCC 530, 24 h
[27] = test system: Candida albicans; test: Antifungal activity against Candida albicans MTCC 227 incubated for 24 hrs at 30 degC by well diffusion method; assay type: functional; conditions: MTCC 227, 24 h
[28] = test system: [Candida] aaseri; test: Fungicidal activity against Candida aaseri MTCC 1962 incubated for 24 hrs; assay type: functional; conditions: Yamadazyma aaseri, MTCC 1962, 24 h
[29] = test system: Bacillus subtilis; test: Bactericidal activity against Bacillus subtilis MTCC 121 incubated for 24 hrs; assay type: functional; conditions: MTCC 121, 24 h
[30] = test system: Nakaseomyces glabratus; test: Antifungal activity against Candida glabrata MTCC 3019 incubated for 24 hrs at 30 degC by well diffusion method; assay type: functional; conditions: MTCC 3019, 24 h
[31] = test system: Candida albicans; test: Antifungal activity against Candida albicans MTCC 7315 incubated for 24 hrs at 30 degC by well diffusion method; assay type: functional; conditions: MTCC 7315, 24 h
[32] = test system: Staphylococcus aureus; test: Antibacterial activity against Staphylococcus aureus MTCC 96 incubated for 24 hrs at 37 degC by well diffusion method; assay type: functional; conditions: MTCC 96, 24 h
[33] = test system: Escherichia coli; test: Antibacterial activity against Escherichia coli MTCC 739 incubated for 24 hrs at 37 degC by well diffusion method; assay type: functional; conditions: MTCC 739, 24 h
[34] = test system: Staphylococcus aureus; test: Antibacterial activity against Staphylococcus aureus MLS16 MTCC 2940 incubated for 24 hrs at 37 degC by well diffusion method; assay type: functional; conditions: MLS16 MTCC 2940, 24 h
[35] = test system: Escherichia coli; test: Bactericidal activity against Escherichia coli MTCC 739 incubated for 24 hrs; assay type: functional; conditions: MTCC 739, 24 h
[36] = test system: Pseudomonas aeruginosa; test: Antibacterial activity against Pseudomonas aeruginosa MTCC 2453 incubated for 24 hrs at 37 degC by well diffusion method; assay type: functional; conditions: MTCC 2453, 24 h
[37] = test system: Candida albicans; test: Antifungal activity against Candida albicans MTCC 1637 incubated for 24 hrs at 30 degC by well diffusion method; assay type: functional; conditions: MTCC 1637, 24 h
[38] = test system: Candida albicans; test: Fungicidal activity against Candida albicans MTCC 854 incubated for 24 hrs; assay type: functional; conditions: MTCC 854, 24 h
[39] = test system: Bacillus subtilis; test: Antibacterial activity against Bacillus subtilis MTCC 121 incubated for 24 hrs at 37 degC by well diffusion method; assay type: functional; conditions: MTCC 121, 24 h
[40] = test system: Micrococcus luteus; test: Bactericidal activity against Micrococcus luteus MTCC 2470 incubated for 24 hrs; assay type: functional; conditions: MTCC 2470, 24 h
[41] = test system: Pichia sporocuriosa; test: Antifungal activity against Issatchenkia hanoiensis MTCC 4755 incubated for 24 hrs at 30 degC by well diffusion method; assay type: functional; conditions: MTCC 4755, 24 h
[42] = test system: Candida albicans; test: Induction of ROS accumulation in Candida albicans MTCC 227 sessile cells at 2 to 8 ug/ml incubated for 24 hrs by DCFH-DA dye based microplate reader analysis; assay type: functional, organism-based

Structure (SMILES): CCCCCCCCC[C@@H](O)[C@H](CO)n1cc(-c2ccccc2)nn1
- MIC [1]: 62.5 µg/mL (≈ 181 µM)
- MFC [2]: 62.5 µg/mL (≈ 181 µM)
- MFC [3]: 62.5 µg/mL (≈ 181 µM)
- MFC [4]: 125 µg/mL (≈ 362 µM)
- MFC [5]: 62.5 µg/mL (≈ 181 µM)
- MFC [6]: 125 µg/mL (≈ 362 µM)
- MIC [7]: 31.2 µg/mL (≈ 90.3 µM)
- MIC [8]: 62.5 µg/mL (≈ 181 µM)
- MFC [9]: 62.5 µg/mL (≈ 181 µM)
- MFC [10]: 125 µg/mL (≈ 362 µM)
- MIC [11]: 62.5 µg/mL (≈ 181 µM)
- MIC [12]: 62.5 µg/mL (≈ 181 µM)
- MFC [13]: 125 µg/mL (≈ 362 µM)
- MIC [14]: 125 µg/mL (≈ 362 µM)
- MFC [15]: 125 µg/mL (≈ 362 µM)
- MIC [16]: 31.2 µg/mL (≈ 90.3 µM)
- MIC [17]: 3.9 µg/mL (≈ 11.3 µM)
- MFC [18]: 62.5 µg/mL (≈ 181 µM)
- MIC [19]: 125 µg/mL (≈ 362 µM)
- MIC [20]: 31.2 µg/mL (≈ 90.3 µM)
- MBC [21]: 31.2 µg/mL (≈ 90.3 µM)
- MIC [22]: 62.5 µg/mL (≈ 181 µM)
- MFC [23]: 125 µg/mL (≈ 362 µM)
- MFC [24]: 62.5 µg/mL (≈ 181 µM)
- MBC [25]: 15.6 µg/mL (≈ 45.2 µM)
- MBC [26]: 62.5 µg/mL (≈ 181 µM)
- MIC [27]: 31.2 µg/mL (≈ 90.3 µM)
- MFC [28]: 31.2 µg/mL (≈ 90.3 µM)
- MBC [29]: 15.6 µg/mL (≈ 45.2 µM)
- MIC [30]: 62.5 µg/mL (≈ 181 µM)
- MIC [31]: 62.5 µg/mL (≈ 181 µM)
- MIC [32]: 7.8 µg/mL (≈ 22.6 µM)
- MIC [33]: > 250 µg/mL
- MIC [34]: 15.6 µg/mL (≈ 45.2 µM)
- MBC [35]: > 250 µg/mL
- MIC [36]: > 250 µg/mL
- MIC [37]: 125 µg/mL (≈ 362 µM)
- MFC [38]: 62.5 µg/mL (≈ 181 µM)
- MIC [39]: 15.6 µg/mL (≈ 45.2 µM)
- MBC [40]: 7.8 µg/mL (≈ 22.6 µM)
- MIC [41]: 62.5 µg/mL (≈ 181 µM)

Structure (SMILES): Clc1ccc(COC(Cn2ccnc2)c2ccc(Cl)cc2Cl)c(Cl)c1 (stereo not given) [MICONAZOLE]
- MIC [1]: 7.8 µg/mL (≈ 18.7 µM)
- MFC [2]: 7.8 µg/mL (≈ 18.7 µM)
- MFC [3]: 15.6 µg/mL (≈ 37.5 µM)
- MFC [4]: 15.6 µg/mL (≈ 37.5 µM)
- MFC [5]: 7.8 µg/mL (≈ 18.7 µM)
- MFC [6]: 7.8 µg/mL (≈ 18.7 µM)
- Activity [42]: Active
- MIC [7]: 7.8 µg/mL (≈ 18.7 µM)
- MIC [8]: 7.8 µg/mL (≈ 18.7 µM)
- MFC [9]: 7.8 µg/mL (≈ 18.7 µM)
- MFC [10]: 15.6 µg/mL (≈ 37.5 µM)
- MIC [11]: 7.8 µg/mL (≈ 18.7 µM)
- MIC [12]: 7.8 µg/mL (≈ 18.7 µM)
- MFC [13]: 7.8 µg/mL (≈ 18.7 µM)
- MIC [14]: 7.8 µg/mL (≈ 18.7 µM)
- MFC [15]: 7.8 µg/mL (≈ 18.7 µM)
- MIC [16]: 7.8 µg/mL (≈ 18.7 µM)
- MFC [18]: 7.8 µg/mL (≈ 18.7 µM)
- MIC [19]: 7.8 µg/mL (≈ 18.7 µM)
- MIC [22]: 7.8 µg/mL (≈ 18.7 µM)
- MFC [23]: 7.8 µg/mL (≈ 18.7 µM)
- MFC [24]: 15.6 µg/mL (≈ 37.5 µM)
- MIC [27]: 7.8 µg/mL (≈ 18.7 µM)
- MFC [28]: 7.8 µg/mL (≈ 18.7 µM)
- MIC [30]: 7.8 µg/mL (≈ 18.7 µM)
- MIC [31]: 7.8 µg/mL (≈ 18.7 µM)
- MIC [37]: 7.8 µg/mL (≈ 18.7 µM)
- MFC [38]: 15.6 µg/mL (≈ 37.5 µM)
- MIC [41]: 7.8 µg/mL (≈ 18.7 µM)
